Results on twelve compounds are retold here after patent publication US20130030001A1 (priority 2008, published 2013).

T1 sequence (P20309 whole entry): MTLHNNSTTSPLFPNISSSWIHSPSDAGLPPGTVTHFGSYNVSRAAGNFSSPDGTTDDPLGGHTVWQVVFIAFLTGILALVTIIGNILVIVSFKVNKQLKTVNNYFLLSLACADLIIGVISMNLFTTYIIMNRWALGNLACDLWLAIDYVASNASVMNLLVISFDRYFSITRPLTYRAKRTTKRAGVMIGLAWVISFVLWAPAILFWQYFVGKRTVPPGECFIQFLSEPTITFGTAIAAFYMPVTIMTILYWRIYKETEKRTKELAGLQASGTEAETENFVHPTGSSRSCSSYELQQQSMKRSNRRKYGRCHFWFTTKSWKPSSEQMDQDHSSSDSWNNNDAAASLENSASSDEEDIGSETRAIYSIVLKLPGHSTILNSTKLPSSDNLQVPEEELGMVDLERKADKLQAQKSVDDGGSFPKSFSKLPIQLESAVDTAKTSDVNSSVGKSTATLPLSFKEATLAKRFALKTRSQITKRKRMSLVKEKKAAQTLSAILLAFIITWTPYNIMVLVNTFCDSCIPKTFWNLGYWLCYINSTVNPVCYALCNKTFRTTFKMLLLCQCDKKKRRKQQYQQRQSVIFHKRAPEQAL

Tested on in one series: not listed separately
In words: in vitro. The note with it: human, plasma, pH 7.4.
In turn, `O=C(C[N+]12CCC(CC1)[C@@H](OC(=O)C1(c3ccccc3)CCCCCC1)C2)Nc1ccccn1` [Example 15, (R)-3-(1-Phenyl-cycloheptanecarbonyloxy)-1-(pyridin-2-ylcarbamoylmethyl)-1-azonia-bicyclo[2.2.2]octane bromide] gave a fraction unbound of 0.039.

Regarding `O=C(C[N+]12CCC(CC1)[C@@H](OC(=O)C1(c3ccccc3)CCCCCC1)C2)Nc1ccc(F)cn1` [Example 17, (R)-1-[(5-Fluoro-pyridin-2-ylcarbamoyl)-methyl]-3-(1-phenyl-cycloheptanecarbonyloxy)-1-azonia-bicyclo[2.2.2]octane chloride], the free fraction (fraction unbound) is 0.024.

With `Cc1cc(NC(=O)C[N+]23CCC(CC2)[C@@H](OC(=O)C2(c4ccccc4)CCCCCC2)C3)ccn1` [Example 20, (R)-1-[(2-Methyl-pyridin-4-ylcarbamoyl)-methyl]-3-(1-phenyl-cycloheptanecarbonyloxy)-1-azonia-bicyclo[2.2.2]octane chloride], the fraction unbound was 0.018.

Another series concerns the target T1, human muscarinic acetylcholine M3 receptor (Homo sapiens, UniProt P20309).
T1 construct: expressed in transfected cells; host or cells: CHO-K1 (Chinese Hamster Ovary) cell membranes
In words: biochemical. The series is classed as binding. The note with it: M3 binding IC50.
In turn, `O=C(C[N+]12CCC(CC1)[C@@H](OC(=O)C1(c3ccccc3)CCCCCC1)C2)Nc1cncnc1` [Example 52, (R)-3-(1-Phenyl-cycloheptanecarbonyloxy)-1-(pyrimidin-5-ylcarbamoylmethyl)-1-azonia-bicyclo[2.2.2]octane chloride] registered an IC50 of less than 2 nM.

Turning to `O=C(C[N+]12CCC(CC1)[C@@H](OC(=O)C1(c3ccccc3)CCCCCC1)C2)Nc1ncccc1F` [Example 53, (R)-1-[(3-Fluoro-pyridin-2-ylcarbamoyl)-methyl]-3-(1-phenyl-cycloheptanecarbonyloxy)-1-azonia-bicyclo[2.2.2]octane chloride], the IC50 was 2 to 10 nM.

Take `O=C(C[N+]12CCC(CC1)[C@@H](OC(=O)C1(c3ccccc3)CCCCCC1)C2)Nc1ccncc1F` [Example 54, (R)-1-[(3-Fluoro-pyridin-4-ylcarbamoyl)-methyl]-3-(1-phenyl-cycloheptanecarbonyloxy)-1-azonia-bicyclo[2.2.2]octane chloride]: the half-inhibitory concentration (IC50) is less than 2 nM.

The compound `O=C(NCC[N+]12CCC(CC1)[C@@H](OC(=O)C1(c3ccccc3)CCCCCC1)C2)c1cnccn1` [Example 55, (R)-3-(1-Phenyl-cycloheptanecarbonyloxy)-1-{2-[(pyrazine-2-carbonyl)-amino]-ethyl}-1-azonia-bicyclo[2.2.2]octane bromide] came in with an IC50 of 2 to 10 nM.

With `O=C(C[N+]12CCC(CC1)[C@@H](OC(=O)C1(c3ccccc3)CCCCCC1)C2)Nc1ncns1` [Example 56, (R)-3-(1-Phenyl-cycloheptanecarbonyloxy)-1-([1,2,4]thiadiazol-5-ylcarbamoylmethyl)-1-azonia-bicyclo[2.2.2]octane chloride], the half-inhibitory concentration (IC50) lay in the range of 2 to 10 nM.

Turning to `O=C(NCCC[N+]12CCC(CC1)[C@@H](OC(=O)C1(c3ccccc3)CCCCCC1)C2)c1ccccn1` [Example 57, (R)-3-(1-Phenyl-cycloheptanecarbonyloxy)-1-{3-[(pyridine-2-carbonyl)-amino]-propyl}-1-azonia-bicyclo[2.2.2]octane bromide], the concentration for half-maximal inhibition (IC50) lay within 2 to 10 nM.

The compound `Cc1cc(NC(=O)C[N+]23CCC(CC2)[C@@H](OC(=O)C2(c4ccccc4)CCCCCC2)C3)ncn1` [Example 59, (R)-1-[(6-Methyl-pyrimidin-4-ylcarbamoyl)-methyl]-3-(1-phenyl-cycloheptanecarbonyloxy)-1-azonia-bicyclo[2.2.2]octane chloride] showed a 50% inhibitory concentration (IC50) of 2 to 10 nM.

In the case of `O=C(NCC[N+]12CCC(CC1)[C@@H](OC(=O)C1(c3ccccc3)CCCCCC1)C2)c1ccccn1` [Example 60, (R)-3-(1-Phenyl-cycloheptanecarbonyloxy)-1-{2-[(pyridine-2-carbonyl)-amino]-ethyl}-1-azonia-bicyclo[2.2.2]octane bromide], the 50% inhibitory concentration (IC50) was less than 2 nM.

`O=C(O[C@H]1C[N+]2(CCCc3ccncc3)CCC1CC2)C1(c2ccccc2)CCCCCC1` [Example 61, (R)-3-(1-Phenyl-cycloheptanecarbonyloxy)-1-(3-pyridin-4-yl-propyl)-1-azonia-bicyclo[2.2.2]octane bromide] came in with an IC50 of less than 2 nM.
